Series [1] in a line: Cmax in Sprague-Dawley rat at 3 mg/kg, po measured for 0.25 to 24 hrs by LC-MS/MS analysis. To be noted: in vivo, time 0.25-24 hrs. Format: ADME, organism-based.
The nature of series [2]: MRT (0 to t) in Sprague-Dawley rat at 3 mg/kg, po measured for 0.25 to 24 hrs by LC-MS/MS analysis. Format: ADME, organism-based. Particulars: in vivo, time 0.25-24 hrs; call rule not given here.
Series [3] can be described thus: Volume of distribution in Sprague-Dawley rat at 1 mg/kg, iv measured for 0.25 to 24 hrs by LC-MS/MS analysis. It counts as ADME, organism-based. To be noted: in vivo, time 0.25-24 hrs.
A short description of series [4]: Biodistribution in 12 hr-fasted male wild-type Sprague-Dawley rat assessed as increase in ratio of drug concentration in liver/plasma at 3 mg/kg, po measured for 0.25 to 4 hrs by LC-MS/MS analysis. It counts as ADME, organism-based. To be noted: in vivo, time 0.25-4 hrs.
A short description of series [5]: Biodistribution in 12 hr-fasted male wild-type Sprague-Dawley rat assessed as increase in ratio of drug concentration in kidney/plasma at 3 mg/kg, po measured after 4 hrs by LC-MS/MS analysis. Format: ADME, organism-based. To be noted: in vivo.
The nature of series [6]: Toxicity in Sprague-Dawley rat model of DEN-induced liver fibrosis assessed as drug tolerance at 3 to 10 mg/kg, po qd treated for 4 weeks. It counts as organism-based. To be noted: in vivo, 672 h, dose 3-10 mg/kg.
Series [7] in a line: Protein binding in human plasma. Format: ADME, cell-free. Particulars: read-out: PPB (converted).
Series [8] is described as follows: Protein binding in mouse plasma. It counts as ADME, cell-free. Particulars: read-out: PPB (converted).
Series [9] can be described thus: Protein binding in rat plasma. It counts as ADME, cell-free. Particulars: read-out: PPB (converted).
Series [10] is described as follows: Intrinsic clearance in dog liver microsomes. Particulars: read-out: CLH. Format: ADME, Canis lupus familiaris, Microsome.
Another series addresses T1, Cytochrome P450 1A2 (Homo sapiens, UniProt P05177).
T1 sequence (P05177 whole entry): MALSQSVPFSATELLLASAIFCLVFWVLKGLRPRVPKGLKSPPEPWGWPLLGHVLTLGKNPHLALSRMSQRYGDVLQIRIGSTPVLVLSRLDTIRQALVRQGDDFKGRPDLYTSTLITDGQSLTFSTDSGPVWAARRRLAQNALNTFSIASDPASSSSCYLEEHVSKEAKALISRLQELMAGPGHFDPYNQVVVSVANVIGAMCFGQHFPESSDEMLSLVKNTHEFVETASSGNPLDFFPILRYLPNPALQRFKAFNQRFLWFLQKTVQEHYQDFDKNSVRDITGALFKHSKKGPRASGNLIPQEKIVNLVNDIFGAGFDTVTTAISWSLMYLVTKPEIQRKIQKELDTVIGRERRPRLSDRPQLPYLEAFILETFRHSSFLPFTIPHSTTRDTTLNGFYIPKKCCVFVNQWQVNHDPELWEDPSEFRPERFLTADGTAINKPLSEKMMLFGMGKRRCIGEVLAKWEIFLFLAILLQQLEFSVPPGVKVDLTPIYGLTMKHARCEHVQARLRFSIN
The series can be described thus: Inhibition of CYP1A2 (unknown origin). Format: ADME.

The next series has as its target Cytochrome P450 2C9 (Homo sapiens, UniProt P11712). The series can be described thus: Inhibition of CYP2C9 (unknown origin). Format: ADME.
For the next series, the target named is Cytochrome P450 2C19 (Homo sapiens, UniProt P33261). Kind of series: Inhibition of CYP2C19 (unknown origin). Format: ADME.
Sequence of Cytochrome P450 2C19 (P33261 whole entry): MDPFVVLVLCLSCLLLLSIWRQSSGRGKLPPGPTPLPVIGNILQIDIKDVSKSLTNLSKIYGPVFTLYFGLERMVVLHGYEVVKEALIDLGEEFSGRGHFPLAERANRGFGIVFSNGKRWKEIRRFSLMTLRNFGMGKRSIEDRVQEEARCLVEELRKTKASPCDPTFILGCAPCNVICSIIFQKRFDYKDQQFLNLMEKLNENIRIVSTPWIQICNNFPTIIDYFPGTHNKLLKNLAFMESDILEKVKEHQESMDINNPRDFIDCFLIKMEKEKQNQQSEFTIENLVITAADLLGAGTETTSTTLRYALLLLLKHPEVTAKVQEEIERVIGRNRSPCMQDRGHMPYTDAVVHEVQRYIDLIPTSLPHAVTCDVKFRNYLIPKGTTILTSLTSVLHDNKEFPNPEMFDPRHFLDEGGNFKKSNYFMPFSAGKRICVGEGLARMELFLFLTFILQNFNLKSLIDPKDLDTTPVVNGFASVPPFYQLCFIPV
Series [11] concerns the target T2, Cytochrome P450 3A4 (Homo sapiens, UniProt P08684). Kind of series: Inhibition of CYP3A4 (unknown origin) using midazolam as substrate. Format: ADME.
Series [12] deals with T2, Cytochrome P450 3A4. Kind of series: Inhibition of CYP3A4 (unknown origin) using testosterone as substrate. It counts as ADME.
Another series addresses Acetyl-CoA carboxylase 1 (Homo sapiens, UniProt Q13085).
Series [13] in a line: in vivo. Particulars: Sprague-Dawley, rat, plasma, po, 3 mg/kg.
Description: Drug concentration in plasma of Sprague-Dawley rat at 3 mg/kg, po measured after 1 hr by LC-MS/MS analysis
A short description of series [14]: in vivo. To be noted: Sprague-Dawley, rat, liver, po, 3 mg/kg.
Description: Drug concentration in liver of Sprague-Dawley rat at 3 mg/kg, po measured after 1 hr by LC-MS/MS analysis

The structures appear in SMILES notation.

T2 sequence (P08684 whole entry): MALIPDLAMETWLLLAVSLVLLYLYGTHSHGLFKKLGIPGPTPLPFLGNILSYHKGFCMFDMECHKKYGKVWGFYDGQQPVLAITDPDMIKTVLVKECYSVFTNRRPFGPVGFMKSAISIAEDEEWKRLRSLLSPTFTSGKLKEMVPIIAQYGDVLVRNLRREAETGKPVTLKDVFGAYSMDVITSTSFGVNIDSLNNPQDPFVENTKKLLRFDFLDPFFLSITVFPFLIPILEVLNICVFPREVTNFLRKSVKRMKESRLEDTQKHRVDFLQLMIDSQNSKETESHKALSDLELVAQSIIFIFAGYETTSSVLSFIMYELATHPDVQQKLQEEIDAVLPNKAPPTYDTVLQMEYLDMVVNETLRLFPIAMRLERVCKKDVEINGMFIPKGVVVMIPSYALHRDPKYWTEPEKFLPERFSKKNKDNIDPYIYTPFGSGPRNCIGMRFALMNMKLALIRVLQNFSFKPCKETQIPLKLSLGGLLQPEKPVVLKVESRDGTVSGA
Sequence of Cytochrome P450 2C9 (P11712 whole entry): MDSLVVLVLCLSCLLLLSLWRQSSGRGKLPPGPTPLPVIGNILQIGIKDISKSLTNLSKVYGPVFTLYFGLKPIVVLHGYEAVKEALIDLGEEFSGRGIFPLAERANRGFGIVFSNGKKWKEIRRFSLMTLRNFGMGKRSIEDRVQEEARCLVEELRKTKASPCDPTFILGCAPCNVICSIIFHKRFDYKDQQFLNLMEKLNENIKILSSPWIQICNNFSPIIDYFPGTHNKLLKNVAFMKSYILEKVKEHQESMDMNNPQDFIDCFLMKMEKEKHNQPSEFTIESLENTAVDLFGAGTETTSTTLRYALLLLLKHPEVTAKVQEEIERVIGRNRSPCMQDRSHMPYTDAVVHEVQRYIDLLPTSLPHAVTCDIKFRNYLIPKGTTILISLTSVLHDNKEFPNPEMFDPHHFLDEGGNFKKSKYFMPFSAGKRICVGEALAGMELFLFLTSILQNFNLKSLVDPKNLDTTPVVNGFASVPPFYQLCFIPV
Description for Acetyl-CoA carboxylase 1: Inhibition of recombinant human ACC1 using acetyl-Co A as substrate incubated for 60 mins in presence of ATP by ADP-Glo assay

One may read the Cmax as the maximum level reached in the sampled fluid or tissue. Broadly, the MRT last is the average time that molecules of a dose stay in the body. Broadly, the Vd is the apparent volume that relates the amount in the body to the concentration in plasma or blood. A higher Vd goes with wide distribution into tissue. What is called IC50 is the midpoint of a concentration-inhibition curve. Low readings indicate inhibition by little substance, high ones a need for much substance. Turning to `COc1ccccc1[C@H](Cn1c(=O)n([C@H]2C[C@@](C)(C(=O)O)C2)c(=O)c2c(C)c(-c3ncco3)sc21)OC1CCOCC1`, the Cmax in series [1] was found to be 38 ng/mL. In series [2], the mean residence time MRT last was determined as 2.7 h. The compound also gave a Vd in series [3] of 2.8 L/kg. Further, the Drug uptake entry in [4] was “Active”; in series [5], “Not_active”. In [6], the Activity entry is “Non-toxic”. Further, the fraction unbound is 0.037 in series [7], 0.054 in series [8] and 0.029 in [9]. Besides, the CLint scaled in [10] is < 13.8 mL/min/kg. Moreover, the IC50 is > 30 µM at Cytochrome P450 1A2; > 30 µM at Cytochrome P450 2C9; > 30 µM against Cytochrome P450 2C19; > 30 µM at Cytochrome P450 3A4 [11]; > 30 µM against Cytochrome P450 3A4 [12]; 0.00073 µM at Acetyl-CoA carboxylase 1. In addition, the figures for the concentration at 1 h in “in vivo [13]” and in “in vivo [14]” were 56.8 ng/mL and 2940 ng/mL, respectively.

These data come from ChEMBL document CHEMBL6134873, “Identification of Novel Cyclobutane-Based Derivatives as Potent Acetyl-CoA Carboxylase Allosteric Inhibitors for Nonalcoholic Steatohepatitis Drug Discovery” (J Med Chem, 2025).
